Like-named read-outs stand apart in the source and are kept apart here.
Key:
[1] = tested on: adenosine uptake into HeLa cells; experiment: [3H]Adenosine uptake assay in HeLa cells; type: cell-based; conditions: 60 minutes uptake, read-out: ADU inhibition IC50 (adenosine uptake inhibition potency)
Procedure: Compounds were also screened in an adenosine uptake functional cellular assay using the protocol described below.
Adenosine uptake activity was determined by monitoring the accumulation of tritiated adenosine into HeLa cells (ATCC catalog # CCL-2) using a PMT-based radiometric detection instrument. In this assay, the potency (IC50) of each compound was determined from a ten point (1:3 serial dilution; final compound concentration range in assay from 10 μM to 0.032 nM) titration curve using the following outlined procedure. To each well of a 96-well CytoStar-T scintillating microplate (Perkin Elmer Catalog # RPNQ0163), 25 000 HeLa cells in 100 μL of growth medium comprising: Minimum Essential Media (Life Technologies Catalog # 11095-080)+10% (v/v) foetal bovine serum (FBS; Sigma Aldrich Catalog # F2442) was added. These cells were incubated overnight at 37° C. in a humidified atmosphere with 5% (v/v) CO2. After this time the growth medium was removed and replaced with 40 μL assay medium comprising: Hanks balanced salts solution (HBSS; Thermo Fisher Catalog # SH30268.01)+5% (v/v) FBS. Compound stock solutions in DMSO were diluted in assay medium to 2.5× final compound concentration maintaining a constant DMSO concentration of 0.25% (v/v). 40 μL of compound in assay medium was dispensed into individual wells of the Cytostar-T plates and the plates were incubated for 30 minutes under ambient laboratory conditions. Following this incubation, 20 μL of 500 nM [^3H]adenosine (American Radiolabeled Chemicals Inc. Catalog # ART0287) in assay medium was added and incubated for a further 60 minutes under ambient laboratory conditions. The amount of radiolabel accumulation was then determined using a Perkin Elmer Topcount NXT microplate reader. In brief, HeLa cells adhere to the bottom of the Cytostar-T plate, uptake of [^3H]adenosine into these cells brings the radiolabel into sufficient proximity to excite the scintillant in the base of the plates. These events are captured by single PMT, time-resolved coincidence counting. IC50 values were determined by 4 parameter robust fit of counts per second values vs. (Log10) compound concentrations.

[2] = molecular target: T1, BTK enzyme (full-length BTK, hBTK) (Homo sapiens, UniProt Q06187); experiment: Btk enzyme activity assay (LANCE TR-FRET); type: biochemical; conditions: 50 pM hBTK, 25 μM ATP, 60 minute compound and enzyme incubation, read-out: BTK binding IC50
T1 construct: recombinant protein from baculovirus-transfected Sf9 cells: full-length BTK, 6HIS-tag cleaved; 6HIS (cleaved yes); made in house; host or cells: baculovirus-transfected Sf9 cells
Procedure: BTK enzymatic activity was determined with the LANCE (Lanthanide Chelate Excite) TR-FRET (Time-resolved fluorescence resonance energy transfer) assay. […] To each well of a black non-binding surface Corning 384-well microplate (Corning Catalog #3820), 5 nL of compound (2000 fold dilution in final assay volume of 10 μL) was dispensed, followed by the addition of 7.5 μL of 1× kinase buffer (50 mM Hepes 7.5, 10 mM MgCl2, 0.01% Brij-35, 1 mM EGTA, 0.05% BSA & 1 mM DTT) containing 5.09 pg/μL (66.67 pM) of BTK enzyme (recombinant protein from baculovirus-transfected Sf9 cells: full-length BTK, 6HIS-tag cleaved). Following a 60 minute compound and enzyme incubation, each reaction was initiated by the addition of 2.5 μL 1× kinase buffer containing 8 μM biotinylated “A5” peptide (Biotin-[…]-NH2) (SEQ.ID.NO.: 1), and 100 μM ATP. The final reaction in each well of 10 μL consists of 50 pM hBTK, 2 μM biotin-A5-peptide, and 25 μM ATP. Phosphorylation reactions were allowed to proceed for 120 minutes. Reactions were immediately quenched by the addition of 20 uL of 1× quench buffer (15 mM EDTA, 25 mM Hepes 7.3, and 0.1% Triton X-100) containing detection reagents (0.626 nM of LANCE-Eu-W1024-anti-phosphoTyrosine antibody, PerkinElmer and 86.8 nM of Streptavidin-conjugated Dylight 650, Dyomics/ThermoFisher Scientific). After 60 minutes incubation with detection reagents, reaction plates were read on a PerkinElmer EnVision plate reader using standard TR-FRET protocol. Briefly, excitation of donor molecules (Eu-chelate:anti-phospho-antibody) with a laser light source at 337 nm produces energy that can be transferred to Dylight-650 acceptor molecules if this donor:acceptor pair is within close proximity. Fluorescence intensity at both 665 nm (acceptor) and 615 nm (donor) are measured and a TR-FRET ratio calculated for each well (acceptor intensity/donor intensity). IC50 values were determined by 4 parameter robust fit of TR-FRET ratio values vs. (Log10) compound concentrations.
The following Table 2 provides specific IC50 values for all the examples. The IC50 values set forth below were determined according to Assay method described above.

T1 sequence (Q06187 whole entry): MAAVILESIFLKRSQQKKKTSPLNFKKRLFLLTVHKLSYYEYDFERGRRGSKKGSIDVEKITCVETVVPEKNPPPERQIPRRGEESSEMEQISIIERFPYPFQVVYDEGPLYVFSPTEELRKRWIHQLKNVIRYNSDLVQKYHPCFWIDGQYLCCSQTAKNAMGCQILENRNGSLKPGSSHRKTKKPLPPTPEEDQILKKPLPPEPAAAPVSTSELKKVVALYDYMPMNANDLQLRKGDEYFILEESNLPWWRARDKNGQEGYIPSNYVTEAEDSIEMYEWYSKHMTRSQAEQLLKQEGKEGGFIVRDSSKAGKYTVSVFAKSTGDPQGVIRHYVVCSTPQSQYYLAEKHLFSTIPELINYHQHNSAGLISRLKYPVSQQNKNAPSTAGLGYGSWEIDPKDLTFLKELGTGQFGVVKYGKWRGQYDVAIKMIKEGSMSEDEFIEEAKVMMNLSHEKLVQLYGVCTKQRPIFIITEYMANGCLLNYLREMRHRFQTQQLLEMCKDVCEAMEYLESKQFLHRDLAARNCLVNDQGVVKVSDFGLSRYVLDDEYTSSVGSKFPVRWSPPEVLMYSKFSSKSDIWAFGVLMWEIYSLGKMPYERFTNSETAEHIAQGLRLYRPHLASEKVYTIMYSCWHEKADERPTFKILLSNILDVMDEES

IC50 ([1]; Homo sapiens, HeLa) [nM]	IC50 [2] [nM]	IC50 [1] [nM]	SMILES
1700	0.501		CCOc1cc(C(=O)Nc2cc(C(F)(F)F)ccn2)ccc1-c1nc([C@@H]2CC[C@H]3CNC4(CCC4)C(=O)N3C2)n2ccnc(N)c12 [Compound 17, 4-{8-amino-3-[(7′R,9a′S)-4′-oxohexahydro-2′H-spiro[cyclobutane-1,3′-pyrido[1,2-a]pyrazin]-7′-yl]imidazo[1,5-a]pyrazin-1-yl}-3-ethoxy-N-[4-(trifluoromethyl)pyridin-2-yl]benzamide]
1250	1		CCOc1cc(C(=O)Nc2cc(C(F)(F)F)ccn2)ccc1-c1nc([C@H]2CN3C(=O)[C@@H]4CCCN4C[C@@H]3CO2)n2ccnc(N)c12 [Compound 36, 4-{8-amino-3-[(3R,6aS,11aR)-6-oxooctahydro-1H,6H-pyrrolo[1′,2′:4,5]pyrazino[2,1-c][1,4]oxazin-3-yl]imidazo[1,5-a]pyrazin-1-yl}-3-ethoxy-N-[4-(trifluoromethyl)pyridin-2-yl]benzamide]
	0.231	2220	CCOc1cc(C(=O)Nc2cc(C(F)(F)F)ccn2)ccc1-c1nc(C2CCC3N(C2)C(=O)CNC32CC2)n2ccnc(N)c12 (stereo not shown) [Compound 42, 4-[8-amino-3-(4′-oxohexahydro-2′H,6′H-spiro[cyclopropane-1,1′-pyrido[1,2-a]pyrazin]-7′-yl)imidazo[1,5-a]pyrazin-1-yl]-3-ethoxy-N-[4-(trifluoromethyl)pyridin-2-yl]benzamide]
998	1.19		CCOc1cc(C(=O)Nc2cc(C(F)(F)F)ccn2)ccc1-c1nc([C@H]2CC[C@@H]3CC4(CC4)C(=O)N3C2)n2ccnc(N)c12 [Compound 48, 4-{8-amino-3-[(6′S,8a′R)-3′-oxohexahydrospiro[cyclopropane-1,2′-indolizin]-6′-yl]imidazo[1,5-a]pyrazin-1-yl}-3-ethoxy-N-[4-(trifluoromethyl)pyridin-2-yl]benzamide]
672	1.51		COc1cc(C(=O)Nc2cc(C(F)(F)F)ccn2)ccc1-c1nc([C@H]2CC[C@H]3N(C2)C(=O)C2(CC2)C3(F)F)n2ccnc(N)c12 [Compound 29, 4-{8-amino-3-[(6′S,8a′R)-1′,1′-difluoro-3′-oxohexahydrospiro[cyclopropane-1,2′-indolizin]-6′-yl]imidazo[1,5-a]pyrazin-1-yl}-3-methoxy-N-[4-(trifluoromethyl)pyridin-2-yl]benzamide]
871	0.171		CCOc1cc(C(=O)Nc2cc(C(F)(F)F)ccn2)cc(F)c1-c1nc([C@@H]2CC[C@@H]3N(C2)C(=O)CC32CC2)n2ccnc(N)c12 [Compound 20, 4-{8-amino-3-[(6′R,8a′S)-3′-oxohexahydro-5′H-spiro[cyclopropane-1,1′-indolizin]-6′-yl]imidazo[1,5-a]pyrazin-1-yl}-3-ethoxy-5-fluoro-N-[4-(trifluoromethyl)pyridin-2-yl]benzamide]
173	0.425		Nc1nccn2c([C@@H]3CC[C@H]4C(=O)C5(CC5)C(=O)N4C3)nc(-c3ccc(C(=O)Nc4cc(C(F)(F)F)ccn4)cc3F)c12 [Compound 7, 4-{8-amino-3-[(6′R,8a′S)-1′,3′-dioxohexahydrospiro[cyclopropane-1,2′-indolizin]-6′-yl]imidazo[1,5-a]pyrazin-1-yl}-3-fluoro-N-[4-(trifluoromethyl)pyridin-2-yl]benzamide]
765	0.222		CCOc1cc(C(=O)Nc2cc(C#N)ccn2)cc(F)c1-c1nc(C2CCC3N(C2)C(=O)CC32CC2)n2ccnc(N)c12 (stereo not shown) [Compound 38, 4-[8-amino-3-(3′-oxohexahydro-5′H-spiro[cyclopropane-1,1′-indolizin]-6′-yl)imidazo[1,5-a]pyrazin-1-yl]-N-(4-cyanopyridin-2-yl)-3-ethoxy-5-fluorobenzamide]
1110	0.127		CCOc1cc(C(=O)Nc2cc(C(F)(F)F)ccn2)ccc1-c1nc([C@@H]2CC[C@@H]3N(C2)C(=O)CC32CC2)n2ccnc(N)c12 [Compound 18, 4-{8-amino-3-[(6′R,8a′S)-3′-oxohexahydro-5′H-spiro[cyclopropane-1,1′-indolizin]-6′-yl]imidazo[1,5-a]pyrazin-1-yl}-3-ethoxy-N-[4-(trifluoromethyl)pyridin-2-yl]benzamide]
1140	1.6		CCOc1cc(C(=O)Nc2cc(C(F)(F)F)ccn2)ccc1-c1nc([C@@H]2CC[C@@H]3N(C2)C(=O)C2(CC2)C3(F)F)n2ccnc(N)c12 [Compound 27, 4-{8-amino-3-[(6′R,8a′S)-1′,1′-difluoro-3′-oxohexahydrospiro[cyclopropane-1,2′-indolizin]-6′-yl]imidazo[1,5-a]pyrazin-1-yl}-3-ethoxy-N-[4-(trifluoromethyl)pyridin-2-yl]benzamide]
895	11.8		CCOc1cc(C(=O)Nc2cc(C(F)(F)F)ccn2)ccc1-c1nc([C@H]2CC[C@H]3N(C2)C(=O)C2(CC2)C3(F)F)n2ccnc(N)c12 [Compound 2, 4-(8-amino-3-((6′S,8a′R)-1′,1′-difluoro-3′-oxohexahydro-1′H-spiro[cyclopropane-1,2′-indolizin]-6′-yl)imidazo[1,5-a]pyrazin-1-yl)-3-ethoxy-N-(4-(trifluoromethyl)pyridin-2-yl)benzamide]
1950	1.54		CCOc1cc(C(=O)Nc2cc(C(F)(F)F)ccn2)cc(F)c1-c1nc([C@@H]2CC[C@@H]3N(C2)C(=O)C2(CC2)C3(F)F)n2ccnc(N)c12 [Compound 28, 4-{8-amino-3-[(6′R,8a′S)-1′,1′-difluoro-3′-oxohexahydrospiro[cyclopropane-1,2′-indolizin]-6′-yl]imidazo[1,5-a]pyrazin-1-yl}-3-ethoxy-5-fluoro-N-[4-(trifluoromethyl)pyridin-2-yl]benzamide]
1580	6.95		CCOc1cc(C(=O)Nc2cc(C(F)(F)F)n(C)n2)c(Cl)cc1-c1nc([C@@H]2CC[C@@H]3N(C2)C(=O)C2(CC2)C3(F)F)n2ccnc(N)c12 [Compound 34, 4-{8-amino-3-[(6′R,8a′S)-1′,1′-difluoro-3′-oxohexahydrospiro[cyclopropane-1,2′-indolizin]-6′-yl]imidazo[1,5-a]pyrazin-1-yl}-2-chloro-5-ethoxy-N-[1-methyl-5-(trifluoromethyl)-1H-pyrazol-3-yl]benzamide]
610	1.22		Nc1nccn2c([C@@H]3CC[C@H]4C(O)C5(CC5)C(=O)N4C3)nc(-c3ccc(C(=O)Nc4cc(C5CC5)ccn4)cc3)c12 (stereo partly drawn) [Compound 13, 4-(8-amino-3-((1′S,6′R,8a′S)-1′-hydroxy-3′-oxohexahydro-1′H-spiro[cyclopropane-1,2′-indolizin]-6′-yl)imidazo[1,5-a]pyrazin-1-yl)-N-(4-cyclopropanepyridin-2-yl)benzamide]

Source: patent US10130630B2, “BTK inhibitors” (MERCK SHARP & DOHME CORP., priority 2014, dated 2018)
